Experiment [1] concerns SK-OV-3. As to the kind of experiment: Antiproliferative activity against human SK-OV-3 cells overexpressing MDR-1-M6/6 assessed as inhibition of cell growth by SRB assay. The experiment is classed as functional, cell-based. Background: The SRB assay estimates cell density from bound dye.
Experiment [2] has as its system SK-OV-3. As to the kind of experiment: Antiproliferative activity against wild type human SK-OV-3 cells assessed as inhibition of cell growth by SRB assay. The format is functional, cell-based.
The subject of experiment [3] is HeLa. The experiment is described as follows: Antiproliferative activity against human HeLa cells overexpressing betaIII-tubulin assessed as inhibition of cell growth by SRB assay. The experiment is classed as functional, cell-based.
The subject of experiment [4] is HeLa. As to the kind of experiment: Antiproliferative activity against wild type human HeLa cells assessed as inhibition of cell growth by SRB assay. The format is functional, cell-based.
The next experiment addresses Tubulin (Bos taurus) (UniProt Q6B856+Q862L2+Q862F3). As to the kind of experiment: Displacement of [3H]colchicine from bovine brain tubulin at 5 uM incubated for 10 mins. The experiment is classed as tissue-based. (In general: In a radioligand displacement assay an active substance lowers the binding of a labelled ligand.)
Experiment [5] in a line: Selectivity ratio of EC50 for induction of microtubule depolymerization in rat A10 cells to IC50 for antiproliferative activity against human MDA-MB-435 cells.
Experiment [6] is described as follows: Induction of microtubule depolymerization in rat A10 cells incubated for 18 hrs by indirect immunofluorescence analysis. The format is cell-based.
Experiment [7] concerns MDA-MB-435. As to the kind of experiment: Antiproliferative activity against human MDA-MB-435 cells assessed as inhibition of cell growth by SRB assay. The format is functional, cell-based.
For experiment [8], the system named is MDA-MB-435. As to the kind of experiment: Antitumor activity against human MDA-MB-435 cells xenografted in nude mouse at 15 mg/kg, ip administered 3 times a week for 2 weeks and measured on day 14. The experiment is classed as functional, organism-based. The conditions noted are these: time 14.0 day. Background: A xenograft is tissue or cells of one species grown in another, often human tumour cells in immunodeficient mice.

Experiment [9] concerns MDA-MB-435. As to the kind of experiment: Antitumor activity against human MDA-MB-435 cells xenografted in nude mouse assessed as reduction in tumor volume at 15 mg/kg, ip administered 3 times a week for 2 weeks and measured on day 14. The conditions noted are these: time 14.0 day. The format is functional, organism-based.
Experiment [10] concerns MDA-MB-435. The experiment is described as follows: Antitumor activity against human MDA-MB-435 cells xenografted in nude mouse at 50 mg/kg, ip administered 3 times a week for 2 weeks and measured on day 14. The experiment is classed as functional, organism-based. Particulars: time 14.0 day.
Experiment [11] deals with MDA-MB-435. As to the kind of experiment: Antitumor activity against human MDA-MB-435 cells xenografted in nude mouse assessed as reduction in tumor volume at 50 mg/kg, ip administered 3 times a week for 2 weeks and measured on day 14. The experiment is classed as functional, organism-based. Particulars: time 14.0 day.
The target in another experiment is Tubulin (Bos taurus, UniProt Q6B856+Q862L2+Q862F3). As to the kind of experiment: Inhibition of bovine brain tubulin assembly. The format is tissue-based.

From ChEMBL document CHEMBL5260860, “Simple monocyclic pyrimidine analogs as microtubule targeting agents binding to the colchicine site” (Bioorg Med Chem, 2023) come the findings set out here.

Calls of active or inactive are those of the source. The rule behind the calls is not given here.

As usually defined, the IC50 is the concentration that gives 50% inhibition. For orientation: inhibition means the percentage by which the read-out fell short of the control. In general, EC50 refers to the midpoint of the concentration-response curve. A low value points to an effect from little substance. In the case of `COc1ccc2c(c1)CCCN2c1nc(C)nc(N)c1Cl`, the IC50 stood at 576 nM in the experiment on SK-OV-3 [1]; 459 nM in the experiment with SK-OV-3 [2]; 279 nM in the experiment with HeLa [3]; 312 nM with HeLa [4]; 220 nM with MDA-MB-435 [7]. The molecule further displayed an inhibition at Tubulin (Bos taurus) of 61%. Besides, in experiment [5], the Selectivity ratio is on record as 6.5. The molecule further came in with an EC50 in experiment [6] of 1400 nM.
Consider `CCNc1nc(C)nc(N(C)c2ccc(OC)cc2)c1Cl`, for which the IC50 with SK-OV-3 [1] amounted to 93.5 nM; with SK-OV-3 [2] it was 77.9 nM; with HeLa [3] it was 61.7 nM; with HeLa [4] it was 41.8 nM; in the experiment on MDA-MB-435 [7], 50.4 nM. Besides, on Tubulin (Bos taurus), the inhibition came to 74%. Moreover, in experiment [5], the Selectivity ratio is 6. For the same molecule, the EC50 in [6] was 305 nM.
Turning to `COc1cccc2cc(N(C)c3nc(C)nc(N)c3Cl)ccc12`, the IC50 in the experiment on SK-OV-3 [1] stood at 193 nM; in the experiment on SK-OV-3 [2], 64.7 nM; in the experiment with HeLa [3], 70.2 nM; in the experiment on HeLa [4] it was 67.1 nM; with MDA-MB-435 [7], 56.1 nM. For the same molecule, at Tubulin (Bos taurus), the inhibition was 74%. The Selectivity ratio in experiment [5] was 15. The EC50 in [6] came out at 831 nM.
Take `CC(=O)O[C@H]1C(=O)[C@@]2(C)[C@H]([C@H](OC(=O)c3ccccc3)[C@]3(O)C[C@H](OC(=O)[C@H](O)[C@@H](NC(=O)c4ccccc4)c4ccccc4)C(C)=C1C3(C)C)[C@]1(OC(C)=O)CO[C@@H]1C[C@@H]2O` [PACLITAXEL]: in the experiment with MDA-MB-435 [8], the result was inactive. Further, the outcome in the experiment with MDA-MB-435 [9] was Active. Besides, the IC50 in the experiment with SK-OV-3 [2] worked out at 5 nM.
The molecule `COc1cccc(N(C)c2nc(C)nc(N)c2Cl)c1` came in with an EC50 in experiment [6] of more than 10000 nM.
Consider `CCCCNc1nc(C)nc(N(C)c2ccc(OC)cc2)c1Cl`, for which the half-inhibitory concentration (IC50) in the experiment on SK-OV-3 [1] amounted to 165 nM; with SK-OV-3 [2], 122 nM; in the experiment with HeLa [3] it was 105 nM; in the experiment with HeLa [4], 66.2 nM; in the experiment with MDA-MB-435 [7], 84.4 nM. The inhibition at Tubulin (Bos taurus) turned out to be 84%. Besides, in experiment [5], the Selectivity ratio stood at 5. Further, the EC50 in [6] was determined as 432 nM.
With `COc1ccc(N(C)c2nc(C)nc(N)c2C)cc1`, the IC50 in the experiment on SK-OV-3 [1] is more than 500 nM; in the experiment on SK-OV-3 [2], 312 nM; in the experiment with HeLa [3] it was 250 nM; in the experiment with HeLa [4], 229 nM; in the experiment on MDA-MB-435 [7] it was 206 nM. This molecule had an inhibition on Tubulin (Bos taurus) of 45%. In addition, the Selectivity ratio in experiment [5] is recorded as more than 39. In [6], this molecule returned a half-maximal effective concentration (EC50) of more than 8000 nM.
With `COc1ccc(N(C)c2nc(C)nc(N)c2Cl)cc1`, the IC50 with SK-OV-3 [1] was determined as 180 nM; with SK-OV-3 [2], 133 nM; with HeLa [3] it was 112 nM; in the experiment with HeLa [4], 86.3 nM; in the experiment with MDA-MB-435 [7], 71.3 nM. At Tubulin (Bos taurus), the inhibition amounted to 76%. Further, in [5], the Selectivity ratio is given as 21. The molecule also yielded an EC50 in experiment [6] of 1500 nM.
In experiment [6], `COc1ccc(/C=C\c2cc(OC)c(OC)c(OC)c2)cc1O` [COMBRETASTATIN A4] yielded an EC50 of 9.8 nM.
Turning to `COc1ccc(N(C)c2nc(C)nc(NC(C)C)c2Cl)cc1`, the IC50 in the experiment on SK-OV-3 [1] amounted to 1600 nM; in the experiment with SK-OV-3 [2] it was 1400 nM; in the experiment on HeLa [3], 1000 nM; in the experiment with HeLa [4], 800 nM; with MDA-MB-435 [7], 685 nM. Besides, the Selectivity ratio in experiment [5] came out at 11. The same molecule displayed an EC50 in [6] of 7400 nM.
For `Cc1nc(N)c(Cl)c(N(C)c2ccc3c(c2)CCO3)n1`, the IC50 with SK-OV-3 [1] was found to be 1050 nM; in the experiment on SK-OV-3 [2] it was 742 nM; in the experiment with HeLa [3], 415 nM; with HeLa [4] it was 490 nM; with MDA-MB-435 [7], 620 nM. For the same molecule, the inhibition at Tubulin (Bos taurus) stood at 60%. In experiment [5], the Selectivity ratio worked out at 15. Also, the concentration giving a half-maximal response (EC50) in experiment [6] is 9200 nM.
For the molecule `CCCNc1nc(C)nc(N(C)c2ccc3c(OC)cccc3c2)c1Cl`, the IC50 came to 362 nM with SK-OV-3 [1]; 227 nM with SK-OV-3 [2]; 234 nM with HeLa [3]; 368 nM with HeLa [4]; 221 nM in the experiment on MDA-MB-435 [7]. The molecule further gave an inhibition on Tubulin (Bos taurus) of 61%. Moreover, the Selectivity ratio in experiment [5] was 1.2. The midpoint of the response in experiment [6], the EC50, lay at 260 nM.
For the molecule `CSc1ccc(N(C)c2nc(C)nc(N)c2Cl)cc1`, the IC50 with SK-OV-3 [2] is 277 nM; in the experiment with HeLa [3] it was 163 nM; in the experiment with HeLa [4], 158 nM; in the experiment on MDA-MB-435 [7], 140 nM. In addition, at Tubulin (Bos taurus), the inhibition came to 71%. The response in experiment [6] was half-maximal at 3300 nM (EC50).
Regarding `COc1ccc(N(C)c2nc(C)nc(NCc3ccccc3)c2Cl)cc1`, the inhibition at Tubulin (Bos taurus) was 14%. The molecule also yielded an EC50 in experiment [6] of more than 10000 nM.
For `COc1ccc2c(c1)CCCN2c1nc(C)nc(NC(=O)C(C)(C)C)c1Cl`, the IC50 in the experiment on SK-OV-3 [2] came out at 3300 nM; in the experiment with HeLa [3] it was 2600 nM; with HeLa [4], 2600 nM; with MDA-MB-435 [7], 2100 nM. The molecule further gave an EC50 in experiment [6] of more than 10000 nM.
Turning to `CCCNc1nc(C)nc(N(C)c2ccc(OC)cc2)c1Cl`, the outcome in the experiment on MDA-MB-435 [10] was inactive. In the experiment on MDA-MB-435 [11], the result was Active. In addition, the concentration for half-maximal inhibition (IC50) worked out at 39.2 nM in the experiment with SK-OV-3 [1]; 34.2 nM in the experiment with SK-OV-3 [2]; 33.8 nM in the experiment on HeLa [3]; 27.9 nM with HeLa [4]; 24.4 nM in the experiment on MDA-MB-435 [7]. This molecule displayed an inhibition at Tubulin (Bos taurus) of 82%. In [5], the Selectivity ratio is on record as 5. Besides, the response in experiment [6] was half-maximal at 123 nM (EC50).
For `CNc1nc(C)nc(N(C)c2ccc(OC)cc2)c1Cl`, the IC50 with SK-OV-3 [1] was 169 nM; in the experiment with SK-OV-3 [2], 118 nM; with HeLa [3], 107 nM; with HeLa [4], 87.6 nM; with MDA-MB-435 [7] it was 103 nM. The inhibition at Tubulin (Bos taurus) was 68%. The Selectivity ratio in experiment [5] amounted to 20. Moreover, the EC50 in [6] is 2100 nM.
Take `COc1ccc(Nc2nc(C)nc(N)c2Cl)cc1`: the EC50 in experiment [6] was more than 10000 nM.
In [6], `COc1ccc(N(C)c2nc(C)nc(NC(C)=O)c2Cl)cc1` showed an EC50 of more than 15000 nM. In the experiment on MDA-MB-435 [7], the 50% inhibitory concentration (IC50) came to 3700 nM.
As for `COc1ccc(N(C)c2nc(C)nc(NCC(C)C)c2Cl)cc1`, the IC50 in the experiment on SK-OV-3 [1] worked out at 117 nM; in the experiment with SK-OV-3 [2], 107 nM; with HeLa [3], 104 nM; with HeLa [4] it was 96.7 nM; in the experiment with MDA-MB-435 [7], 78.1 nM. For the same molecule, the inhibition at Tubulin (Bos taurus) is 57%. Moreover, in experiment [5], the Selectivity ratio is recorded as 5. The midpoint of the response in [6], the EC50, lay at 394 nM.
At Tubulin (Bos taurus), `COc1ccc(N(C)c2nc(C)nc3[nH]ccc23)cc1` showed an inhibition of 70%. Besides, the IC50 against Tubulin is 2600 nM. The Selectivity ratio in experiment [5] is recorded as 32. In addition, the EC50 in [6] worked out at 5800 nM.
